Values after ≈ are worked out from the molar mass of the structure shown. Counter-ions that a name gives are not always drawn. Like-named read-outs stand apart in the source and are kept apart here.

The conditions of data set [1]: cited from earlier work; for Ks with HP-β-CD (from phase solubility study): LA base form; for solubility increment of CAP: at least 10 times greater HP-β-CD concentrations.
The test system of data set [2] is carrageenan-inflamed mice paw. The data set is described as follows: Analgesia in inflamed tissue, carrageenan-induced hyperalgesia, mechanical allodynia in mice hind paw. Type of data set: in vivo, Male Swiss mice. The following applies: 2% solution, subplantar injection, 4 h after carrageenan. The method, then:
The antinociceptive effect of the association between mepivacaine and complexed CAP (HP-β-CD-CAP) was evaluated in vivo. A sample of freeze-dried HP-β-CD-CAP was resuspended in 4 mL of mepivacaine hydrochloride solution (MVC) to final concentrations of 1.6 mM (0.05%) CAP and 2% MVC. MVC solution was previously sterilized by filtration 0.22 μm. (Millipore, Burlington, Massachusetts, USA). Male Swiss mice (30–35 g) were obtained from Centro de Bioterismo, University of Campinas, UNICAMP (CEMIB-UNICAMP, Campinas, São Paulo, Brazil) and housed in standard cages under a 12/12 h of light/dark cycle. All experiments were approved by the institutional animal care and use committee of Unicamp, meaning it follows the Brazilian national guideline, which is in line with the National Institutes of Health guide for the care and use of Laboratory animals (protocol # 4402-1).
The mechanical allodynia was analyzed in mice hind paw by a Dynamic Plantar Aesthesiometer (model 37450, Ugo Basile, Italy). The animals were placed in an elevated cage for 2 h before the test, for setting and training. […] The anesthetic formulations were then applied into the same subplantar region of the right paw of the mice, and the pain threshold was evaluated every 15 min. […] After the mechanical stimulus, the time elapsed until paw withdrawal as well as the applied pressure value were automatically recorded.

The conditions of data set [3]: cited from earlier work.
The nature of data set [4]: DOSY NMR diffusion, complexed fraction and association constant. It is filed as physicochemical. The method, then: DOSY is an experiment that separates the signals of a mixture of components according to the size and shape of the molecules. DOSY experiments were conducted with the pulse sequence ledbpgp2s, with a time diffusion of 0.06 s. […] The average acquisition time of the experiment was 40 min. The processing program (Dosy Toolbox) was run with data transformed using fn = 32 K. The diffusion coefficient and standard deviation of each species was given by the arithmetic mean of all coefficients of the same species. DOSY allows determination of the association constant (Ka), between guest molecules and CDs. Ka values are inferred from the complexed fraction (Fcomplexed) of the guest molecule, and both values were calculated accordingly to Equations (4) and (5), where Ddrug is the diffusion coefficient of the free drug, Dcomplex is the diffusion coefficient of the complex, Dcyclodextrin is the diffusion coefficient of free CD, and R is the molar concentration of non-complexed CD [25]:(4) Fcomplexed=[Ddrug−Dcomplex]/[Ddrug−Dciclodextrin] (5) Ka=[Ddrug−Dcomplex]/[Ddrug−Dciclodextrin] × R

Data set [5] can be described thus: Phase solubility study of CAP with HP-β-CD. It is filed as physicochemical. Here is the method: The effects of HP-β-CD on the solubility of CAP was investigated according to the phase solubility method described by Higuchi and Connors. In this experiment increasing concentrations of CD (0–10 mM) were added to a saturated CAP solution. The solutions were left under magnetic stirring for 48 h (350 rpm and 25 °C). Aliquots of each vial were centrifuged for 10 min (4100× g) and the supernatant was filtered through 0.45 μm (Millipore, Burlington, Massachusetts, USA) and diluted to determine CAP concentration by UV absorption at 280 nm. The phase solubility diagram was obtained by plotting the solubility of CAP, versus the concentrations of HP-β-CD […]. The apparent stability constant (Ks) were calculated by Equation (1), where S0 is the aqueous molar solubility of the drug, taken from the Y intercept of the plot:(1) Ks=slope/S0(1−slope)
The complexation efficiency (CE) determines the adequate ratio of CDs to ensure maximum solubility of the complexed drug. For the CAP-HP-β-CD complex, CE was calculated from the phase solubility plots, according to Equation (2). The CE values allow drug/CD ratio in the formulation, according to Equation (3):(2) CE=slope/(1−slope) (3) Drug:CD=1/(CE+1)/CE

Data set [6] can be described thus: In vitro release, Franz-type vertical diffusion cell. Type of data set: physicochemical. The following applies: 37 °C, PBS pH 7.4, n = 3. The method, then:
A “Franz-type” vertical diffusion cell system was used to evaluate the in vitro release of CAP, comparing the free (dissolved in 20% ethanolic solution) and complexed drug with HP-β-CD [26]. The diffusion system consists of two compartments: the donor one—containing 1 mL of the sample—and the acceptor compartment, containing 12 mL of buffer (10 mM phosphate buffered saline, pH 7.4) kept at 37 °C, under mild stirring to ensure sink condition. A cellulose membrane (Spectrapore, Los Angeles, 1000 Da molecular exclusion pore) separated the two compartments. Aliquots (200 μL) were withdrawn from the acceptor compartment at fixed intervals (15, 30, […], 60, and 90 min, and every hour for 6 h) and the volume was replaced with fresh medium. CAP was quantified by HPLC, in a Waters Breeze 2 System (Waters, Milford, Massachussets, USA) at 280 nm and 30 °C, using a Luna® C18 (2) reverse phase (25 × 4.6 mm, 5 μm) (Phenomenex, Torrance, California, USA), 30-µL injection volume, phosphoric acid (1:1000 v/v) and acetonitrile (7:3 v:v), at pH 2.4, and 1.0 mL/min flow rate.

On the set-up of data set [7]: method as in PMID 19440843. The conditions noted are these: pure HP-β-CD 15% m/w; cited from earlier work.
[8] abbreviates: complexation with HP-β-CD, DOSY-NMR.

`CCCCN1CCCCC1C(=O)Nc1c(C)cccc1C` (centres unmarked) [bupivacaine]: in data set [1], the “Ks with HP-β-CD (from phase solubility study)” value was 95 M⁻¹.
For `Cc1cccc(C)c1NC(=O)C1CCCCN1C` (centres unmarked) [mepivacaine], in data set [1], the “Ks with HP-β-CD (from phase solubility study)” value is 38 M⁻¹.
Take `Clc1ccc(COC(Cn2ccnc2)c2ccc(Cl)cc2Cl)c(Cl)c1` (centres unmarked) [miconazole]: the “molecules of HP-β-CD demanded for optimal complexation” value (“molecules of HP-β-CD demanded” below) in data set [1] is on record as 12 molecules.
For `Cc1cccc(C)c1NC(=O)C1CCCCN1C` (centres unmarked) [MVC, mepivacaine hydrochloride], in data set [2], the “induction of anesthesia in inflamed paw” value is listed as “did not induce anesthesia in mice at any time tested”.
`CCCCN1CCCC[C@H]1C(=O)Nc1c(C)cccc1C` [S-bupivacaine]: in data set [3] (setting [8]), the “association constant (Ka)” value was 91 M⁻¹ and the “complexed fraction (Fcomplexed)” value is given as 57%.
With `COc1cc(CNC(=O)CCCC/C=C/C(C)C)ccc1O` [CAP, Capsaicin], the “diffusion coefficient (D)” value in data set [4] is 4.94 × 10^−10 m^2s^−1; in data set [3], 4.81 × 10^−10 m^2s^−1. The “solubility increment of CAP” value was 160 times in data set [1] (at 27 °C) and 147 times in data set [1] (at 37 °C). Besides, the “improvement of apparent solubility of CAP” value in data set [5] was “up to 20 times”. The “moles of HP-β-CD required per mole of drug to solubilize (D:CD, Equation (3))” value in data set [5] was 4.2 mol. Further, the concentration in solution in data set [5] (25 °C, aqueous with cosolvent or surfactant or cyclodextrin, thermodynamic from solid) (solubility at 48 h) came to 2200 µM (≈ 672 µg/mL). Further, the “time of CAP release” value in data set [6] stood at 5 h.
On to `Clc1ccccc1C(c1ccccc1)(c1ccccc1)n1ccnc1` [clotrimazole], for which the “molecules of HP-β-CD demanded” value in data set [1] is 21 molecules.
As to `CC(C)(C)c1ccc(C(O)CCCN2CCC(C(O)(c3ccccc3)c3ccccc3)CC2)cc1` (centres unmarked) [terfenadine], the “molecules of HP-β-CD demanded” value in data set [1] was 4 molecules.
hydroxypropyl-β-cyclodextrin [HP-β-CD]: the results for the “diffusion coefficient (D)” value in data set [4] and in data set [3] were 2.00 × 10^−10 m^2s^−1 and 2.21 × 10^−10 m^2s^−1, respectively. Further, in data set [7], the “collapse temperature (Tc)” value was −9.5 °C. The “HP-β-CD concentration above which aggregates start” value in data set [1] is “higher than 12 mM”.

The values above are taken from paper PMC7460887, “Capsaicin-Cyclodextrin Complex Enhances Mepivacaine Targeting and Improves Local Anesthesia in Inflamed Tissues” (International Journal of Molecular Sciences, 2020).
